Where “and” joins values, the source holds several entries; their conditions need not be identical. Equal entries are not always repeated. Marks after values point to notes of the source that are not given here.
How the values were obtained:
HIV-1 = conditions: in vitro and hu-PBL-SCID mouse model; at concentrations that do not affect CCR5 chemokine receptor activity; cited from earlier work
[1] = CDI-NASH-01 clinical study, safety and tolerability; type: in vivo, human
Excerpt: The secondary objective of this study was to assess the safety and tolerability of leronlimab in adult patients diagnosed with NASH compared to placebo.
(See FIG. 3 and FIG. 4.) There was no grade 3 or higher drug related treatment emergent adverse event.

[2] = tested on: NASH patients by CCR5 haplotype; assay: CDI-NASH-01 clinical study, treatment outcome by CCR5 haplotype; type: in vivo, human
Excerpt: CCR5 haplotype was investigated for 5 patients. Haplotypes with very high transcription and thus high cell surface expression of CCR5 include HHE/HHE and HHG1/HHG1. High transcription alleles when combined with a null allele delta 32 or HHG2 will default to the heterozygous allele such that HHE/HHG2 and HHG1/HHG2 would also be high transcribers for CCR5.
CCR5 transcriptional activity and disease progression can be slowed or accelerated. Surface CCR5 expression level also played a part in NASH disease progression and specific CCR5 haplotypes correlated with dose and treatment outcomes.
All patients appeared to benefit from a dose that lowered RANTES (CCL5) levels to approximately zero.

CCR5-expressing cells = conditions: cited from earlier work
[3] = tested on: NSG mice fed a high fat NASH-inducing diet; assay: Humanized NSG mice on high fat NASH-inducing diet, Oil Red O liver sections; type: in vivo, mouse
Method: 16 male were first humanized by intravenous inoculation with normal human umbilical cord blood cells. […] Mice were switched to a high fat (52%), high cholesterol (1.25%) diet. (FPC diet: fructose, palmitate, cholesterol, trans-fat; Envigo-Teklad TD.160785). […] Mice were euthanized at 16 weeks after initiation of the high fat, high cholesterol diet.
Liver sections were analyzed for indicators of NAFLD. […] Regions of interest were identified in micrographs and digitized using an Aperio AT2 slide scanner (Leica Biosystems), then analyzed using QuPath v0.2.01 imaging software. […] Percent positivity in IgG treated group was 9.751±1.789. […] Student's t test p=0.014. Steatosis was numerically scored following a semi-quantitative pathological standard.

hepatic fat fraction = assay: CDI-NASH-01 clinical study, MRI-PDFF; type: in vivo, human; conditions: for MRI PDFF: change baseline to week 14; for Mean percent change from baseline PDFF: 700 mg SC weekly (n=22), baseline to week 14
Method: (§1) Eligible patients included adults aged between 18 to 75 years (inclusive), with evidence of phenotype nonalcoholic steatohepatitis (NASH). […] A stable body weight (±5%) was required during the 6 months prior to screening. Exclusion criteria include but were not limited to HIV, autoimmune hepatitis, excess alcohol use, viral hepatitis, and prior or pending liver transplantation. No patients in the 350 mg study were concomitantly treated with semaglutide, while 18% of patients in the placebo group were concomitantly treated with semaglutide.
(§2) There were 21 patients in cT1 analysis and 22 for PDFF analysis. One patient obtained PDFF at End of Treatment but MRI for cT1 despite repeat was not able to quality (by 3 cuts) so no results for cT1 were obtained on that patient.
The primary efficacy objective of the study was the change from baseline in hepatic fat fraction, assessed by magnetic resonance imaging-derived proton density fat fraction (MRI-PDFF) at week 14.

[4] = tested on: fibro-inflammatory activity in the liver; assay: CDI-NASH-01 clinical study, MRI cT1; type: in vivo, human; conditions: for Mean change cT1: baseline to week 14; for MRI cT1: change baseline to week 14
Method: as §1, §2
(§3) The secondary efficacy objective was the change from baseline in fibro-inflammatory activity in the liver as assessed by cT1 (corrected T1) at week 14. cT1 is obtained by multiparametric magnetic resonance imaging of the liver and is a quantitative metric for assessing a composite of liver inflammation and fibrosis, expressed in milliseconds (msec). Additional objectives were change from baseline in LFT, chemokine and cytokine levels and key biomarkers of inflammation to week 14. In particular, change in serum cK18 and K18 by M30-M65 ELISA was assessed at week 14.

CCR5 = CCR5 (Homo sapiens, UniProt P51681); conditions: CCR5+ cells; cited from earlier work
[5] = tested on: fibro-inflammatory activity in the liver; assay: CDI-NASH-01 clinical study, MRI cT1; type: in vivo, human; conditions: 350 mg SC weekly, all patients (n = 22), change baseline to week 14
[6] = tested on: LFT, chemokine and cytokine levels and key biomarkers of inflammation; assay: CDI-NASH-01 clinical study, serum analysis of biomarkers; type: in vivo, human
Excerpt: as §3

serum cK18 and K18 = assay: CDI-NASH-01 clinical study, M30-M65 ELISA; type: in vivo, human
Excerpt: as §3

[7] = 350 mg SC weekly, baseline cT1 ≥ 875 (n = 14)
[8] = 350 mg SC weekly, baseline cT1 ≥ 950 (n = 8)
[9] = 350 mg, patients with baseline elevated ALT (n=8)
[10] = 700 mg group with genetic haplotypes known to over produce CCR5, post hoc analysis
[11] = 700 mg, haplotypes associated with increased CCR5 expression
[12] = 350 mg SC weekly, all patients (n = 22), change baseline to week 14
[13] = 350 mg SC weekly, baseline cT1 ≥ 875 (n = 14), change baseline to week 14
[14] = 350 mg SC weekly, baseline cT1 ≥ 950 (n = 8), change baseline to week 14
[15] = 700 mg, patients with increased CCR5 cell surface levels
[16] = placebo patients concomitantly treated with semaglutide (n = 5)
[17] = placebo patients concomitantly treated with semaglutide (n = 5), change baseline to week 14

Sequence of CCR5 (P51681 whole entry): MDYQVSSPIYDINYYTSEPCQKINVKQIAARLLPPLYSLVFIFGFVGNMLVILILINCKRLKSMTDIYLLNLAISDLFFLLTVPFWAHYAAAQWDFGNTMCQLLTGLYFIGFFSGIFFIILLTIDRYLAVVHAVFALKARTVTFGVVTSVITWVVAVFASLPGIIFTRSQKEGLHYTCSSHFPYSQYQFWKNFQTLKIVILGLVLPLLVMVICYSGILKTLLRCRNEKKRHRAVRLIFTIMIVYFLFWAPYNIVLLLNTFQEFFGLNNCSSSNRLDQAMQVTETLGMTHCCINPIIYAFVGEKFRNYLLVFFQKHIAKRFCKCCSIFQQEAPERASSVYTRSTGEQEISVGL

leronlimab: humanized IgG4 monoclonal antibody that binds to CCR5; humanized version of murine antibody PA14
HIV-1 entry and replication (HIV-1): potently inhibits | tolerability ([1]; Part 1 (700 mg) and Part 2 (350 mg)): generally well tolerated | grade 3 or higher drug related treatment emergent adverse event ([1]; Part 1 and Part 2): no | Injection site reaction and mild diarrhea, frequency vs placebo ([1]; not associated with discontinuation): occurred more frequently | treatment effect ([2]; 350 mg, haplotypes correlated with low to normal surface expression of CCR5): benefited | treatment effect ([2]; 700 mg or 350 mg, haplotypes correlated with high surface expression of CCR5, greater at 700 mg): positive effects | treatment effect ([2]; 700 mg, haplotypes correlated with low to normal surface expression of CCR5): negative effects | CCR5 surface expression / depletion of CCR5-expressing cells (CCR5-expressing cells): does not downregulate CCR5 surface expression or deplete CCR5-expressing cells | fatty liver development ([3]; 2 mg i.p. twice weekly): inhibited | presence of fat in the liver, Oil Red O stain ([3]; 2 mg i.p. twice weekly vs IgG): markedly reduced | MRI PDFF (hepatic fat fraction; 350 mg SC weekly, all patients (n = 22)): significantly reduced | MRI PDFF (hepatic fat fraction; [7]): −4.37% and −4.38* % | MRI PDFF (hepatic fat fraction; [8]): −9.39% and −9.27* % | PDFF change (hepatic fat fraction; [9]): −18% | Mean percent change from baseline PDFF (hepatic fat fraction): +3.75% | Mean percent change from baseline PDFF (hepatic fat fraction; listed as Leronlimab): did not reduce | mean percent PDFF change (hepatic fat fraction; [10]): −27.9% | PDFF decrease (hepatic fat fraction; [11]): 28% | steatosis (hepatic fat fraction; [11]): Improvements | Mean change cT1 ([4]; 350 mg SC weekly, all patients): -24.38 ms | MRI cT1 [4, 7]: −42.00** | MRI cT1 [4, 8]: −68.86** | Mean change cT1 ([4]; 350 mg subgroup with baseline cT1≥875 ms): -42.00 ms | cT1 change [4, 9]: -69 ms | Mean change cT1 ([4]; 700 mg SC weekly): -2.73 ms | Mean change cT1 ([4]; 700 mg SC weekly, listed as Leronlimab): did not reduce | mean cT1 change [4, 10]: -45.4 ms | IC50 of CCL5-induced calcium mobilization (CCR5): 45 µg/mL | MRI cT1 [5]: significantly reduced | Alpha-2-Mactoglobulin s [6, 12]: 8.96 mg/mL | Gamma Glutamyl Transferase (GGT) s [6, 12]: −1.3 U/L | Alkaline Phosphatase [6, 13]: −3.16 IU/L | Apolipoprotein A1S [6, 13]: 9.2 mg/dL | Aspartate Aminotransferase (AST) s [6, 13]: −5.5 U/L | CCL2 (Monocyte Chemotactic Protein-1) [6, 13]: -95.53 pg/mL | CCL3 (Macrophage Inflammatory Protein-1 Alpha) [6, 13]: −7.14*** pg/mL | CCL5 (RANTES) [6, 13]: −7.8 | CCL11 (Eosinophil Chemotactic Protein) [6, 13]: -15.21 pg/mL | CCL18 (Macrophage Inflammatory Protein-4) [6, 13]: −32.1** ng/mL | EN RAGE (Receptor Advanced Glycation End-Products) [6, 13]: −115.50** ng/mL | IL-1 (Interleukin 1) Beta [6, 13]: 0.00 pg/mL | IL-6 (Interleukin 6) [6, 13]: -0.44 pg/mL | IL-8 (Interleukin 8) [6, 13]: −12.6*** pg/mL | IR-IRA (Interleukin 1 Receptor Antagonist) [6, 13]: −34.79** pg/mL | TIMP-1 (Tissue Inhibitor Metalloproteinases 1) [6, 13]: -17.26 ng/mL | TNF Receptor 2 (STNFR-2) [6, 13]: −2.0*** ng/mL | VCAM (Vascular Cell Adnhesion Molecule) [6, 13]: −94.2*** ng/mL | Alkaline Phosphatase [6, 14]: −7.25* IU/L | Apolipoprotein A1S [6, 14]: 2.3 mg/dL | Aspartate Aminotransferase (AST) s [6, 14]: −13.0 U/L | CCL2 (Monocyte Chemotactic Protein-1) [6, 14]: -179.0 pg/mL | CCL3 (Macrophage Inflammatory Protein-1 Alpha) [6, 14]: −8.0*** pg/mL | CCL5 (RANTES) [6, 14]: −25.3 | CCL11 (Eosinophil Chemotactic Protein) [6, 14]: -16.25 pg/mL | CCL18 (Macrophage Inflammatory Protein-4) [6, 14]: −48.0** ng/mL | EN RAGE (Receptor Advanced Glycation End-Products) [6, 14]: −169.0* ng/mL | Gamma Glutamyl Transferase (GGT) s [6, 14]: −6.13 U/L | IL-1 (Interleukin 1) Beta [6, 14]: 0.00 pg/mL | IL-6 (Interleukin 6) [6, 14]: -0.30 pg/mL | IL-8 (Interleukin 8) [6, 14]: −4.25** pg/mL | IR-IRA (Interleukin 1 Receptor Antagonist) [6, 14]: -26.25 pg/mL | TIMP-1 (Tissue Inhibitor Metalloproteinases 1) [6, 14]: -25.3 ng/mL | TNF Receptor 2 (STNFR-2) [6, 14]: −2.7*** ng/mL | VCAM (Vascular Cell Adnhesion Molecule) [6, 14]: −81.0* ng/mL | ALT, mean change [6, 9]: −29.3 U/L | ALT, mean after treatment ([6]; 350 mg, patients with baseline elevated ALT (n=8), baseline 83.7): 54.3 U/L | CCL2 level ([6]; 700 mg SC weekly): balanced or increased levels | CCL3 level ([6]; 700 mg SC weekly): balanced or increased levels | CCL11 level ([6]; 700 mg SC weekly): balanced or increased levels | CCL18 level ([6]; 700 mg SC weekly): balanced or increased levels | Apolipoprotein A1 [6, 11]: Improvements | HDL [6, 11]: strong increase | M65 ELISA (cK18 and K18), mean change baseline to week 14 (serum cK18 and K18; 350 mg group): −8.18 U/L | M65 ELISA (cK18 and K18), mean at week 14 (serum cK18 and K18; 350 mg group, baseline 340.55): 332.4 U/L | CK18 (serum cK18 and K18; [11]): statistically significant reductions | M30 (serum cK18 and K18; [15]): statistically significant reductions | M65 (serum cK18 and K18; [15]): statistically significant reductions

semaglutide [Placebo + Semaglutide, reference compound]
MRI PDFF (hepatic fat fraction; [16]): −1.85% | MRI cT1 [4, 16]: −4.40 | Alanine Aminotransferase (ALT) s [6, 17]: −3.6 U/L | Alpha-2-Mactoglobulin s [6, 17]: -11.6 mg/mL | Apolipoprotein A1 s [6, 17]: -4.0 mg/dL | Aspartate Aminotransferase (AST) s [6, 17]: −2.8 U/L | CCL2 (Monocyte Chemotactic Protein-1) [6, 17]: -6.00 pg/mL | CCL3 (Macrophage Inflammatory Protein-1 Alpha) [6, 17]: -1.2 pg/mL | CCL5 (RANTES) [6, 17]: 1.2 | CCL11 (Eosinophil Chemotactic Protein) [6, 17]: 0.20 pg/mL | CCL18 (Macrophage Inflammatory Protein-4) [6, 17]: 4.80 ng/mL | High Density Lipoprotein Cholesterol (HDL) [6, 17]: -1.0 mg/dL | IL-6 (Interleukin 6) [6, 17]: 0.34 pg/mL | IR-IRA (Interleukin 1 Receptor Antagonist) [6, 17]: 26.6 pg/mL | TNF Receptor 2 (STNFR-2) [6, 17]: 0.52 ng/mL | VCAM (Vascular Cell Adnhesion Molecule) [6, 17]: -35.6 ng/mL | VEGF (Vascular Endothelian Growth Factor) [6, 17]: -11.2 pg/mL

From patent publication US20260242490A1, “METHODS OF TREATING NAFLD AND NASH” (CytoDyn Inc., priority 2022, published 2026)
